{
  "source": "ChEMBL document CHEMBL5096234",
  "about": "“Discovery, Optimization, and Evaluation of Selective CDK4/6 Inhibitors for the Treatment of Breast Cancer” (J Med Chem, 2022)",
  "key": {"[1]": {"system": "T47D", "assay": "Induction of cell cycle arrest in human T47D cells assessed as accumulation of cells at G1 phase at 4 uM incubated for 24 hrs by propidium iodide staining based flow cytometry analysis (reference value: 69.55 %)", "type": "functional"}, "[2]": {"assay": "Acute toxicity in ICR mouse assessed as change in spleen weight at 1000 to 5000 mg/kg, po administered as single dose and measured every 2 days for 14 days", "type": "organism-based", "details": "in vivo, 336 h, dose 1000-5000 mg/kg, time 14 day"}, "[3]": {"system": "MCF7", "assay": "Inhibition of clone formation in human MCF7 cells at 0.75 to 6 uM by crystal voilet staining based analysis", "type": "functional, cell-based", "details": "dose 0.75-6 µM, time 2.0 weeks"}, "[4]": {"system": "MCF-10A", "assay": "Antiproliferative activity against human MCF-10A cells assessed as cell growth inhibition incubated for 72 hrs by CCK-8 assay", "type": "functional"}, "[5]": {"assay": "Half life in Sprague-Dawley rat 1 mg/kg, iv by LC/MS/MS analysis", "type": "ADME, organism-based", "details": "in vivo"}, "[6]": {"system": "MCF7", "assay": "Downregulation c-MYC level in human MCF7 cells incubated for 24 hrs by Western blot analysis", "type": "functional, cell-based", "details": "dose 1.5-5 µM, DDE = dose-dependent effect"}, "[7]": {"assay": "Acute toxicity in ICR mouse assessed as change in heart kidney at 1000 to 5000 mg/kg, po administered as single dose and measured every 2 days for 14 days", "type": "organism-based", "details": "in vivo, 336 h, dose 1000-5000 mg/kg, time 14 day"}, "[8]": {"system": "MCF7", "assay": "Antiproliferative activity against human MCF7 cells assessed as inhibition of cell growth at 1.5 to 6 uM incubated for 5 days by CCK-8 assay", "type": "functional, cell-based", "details": "dose 1.5-6 µM, time 5.0 day"}, "[9]": {"assay": "Acute toxicity in ICR mouse assessed as liver lesions at 5000 mg/kg, po administered as single dose and measured every 2 days for 14 days by H and E staining based analysis", "type": "organism-based", "details": "in vivo, 336 h, time 14 day"}, "[10]": {"biological_target": "CDK4/Cyclin D3 (Homo sapiens, UniProt P11802)", "sequence (P11802 whole entry)": "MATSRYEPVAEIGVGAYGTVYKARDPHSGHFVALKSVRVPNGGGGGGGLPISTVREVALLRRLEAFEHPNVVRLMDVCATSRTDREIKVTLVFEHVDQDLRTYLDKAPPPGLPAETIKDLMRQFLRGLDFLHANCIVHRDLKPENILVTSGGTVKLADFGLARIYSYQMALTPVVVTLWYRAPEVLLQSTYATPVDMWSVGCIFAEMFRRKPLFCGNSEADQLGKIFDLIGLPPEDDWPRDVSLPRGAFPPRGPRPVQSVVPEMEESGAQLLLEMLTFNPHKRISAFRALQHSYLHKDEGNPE", "sequence (P30281 whole entry, further chain)": "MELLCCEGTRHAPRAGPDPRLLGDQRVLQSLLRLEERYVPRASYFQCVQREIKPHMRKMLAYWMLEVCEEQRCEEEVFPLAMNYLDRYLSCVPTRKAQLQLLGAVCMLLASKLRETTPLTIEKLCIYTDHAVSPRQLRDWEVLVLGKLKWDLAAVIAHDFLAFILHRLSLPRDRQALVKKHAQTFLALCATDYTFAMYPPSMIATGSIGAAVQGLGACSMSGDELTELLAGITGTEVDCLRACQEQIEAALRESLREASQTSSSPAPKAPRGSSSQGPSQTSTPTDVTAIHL", "assay": "Inhibition of CDK4/cyclin-D3 (unknown origin) in presence of ATP by time resolved-FRET assay", "type": "protein-complex assay"}, "[11]": {"assay": "Acute toxicity in ICR mouse assessed as lung lesions at 5000 mg/kg, po administered as single dose and measured every 2 days for 14 days by H and E staining based analysis", "type": "organism-based", "details": "in vivo, 336 h, time 14 day"}, "[12]": {"system": "MCF7", "assay": "Induction of cell cycle arrest in human MCF7 cells assessed as accumulation of cells at G1 phase at 1.5 uM incubated for 24 hrs by propidium iodide staining based flow cytometry analysis (reference value: 57.38%)", "type": "functional"}, "[13]": {"assay": "Acute toxicity in ICR mouse assessed as spleen lesions at 5000 mg/kg, po administered as single dose and measured every 2 days for 14 days by H and E staining based analysis", "type": "organism-based", "details": "in vivo, 336 h, time 14 day"}, "[14]": {"system": "MCF7", "assay": "Antitumor activity against human MCF7 cells xenografted in BALB/c mouse assessed as inhibition of tumor growth at 150 mg/kg, po administered once daily and measured every 2 days for 23 days", "type": "functional, organism-based", "details": "time 23.0 day"}, "[15]": {"biological_target": "CDK6/cyclin D1 (Homo sapiens, UniProt Q00534)", "sequence (P24385 whole entry)": "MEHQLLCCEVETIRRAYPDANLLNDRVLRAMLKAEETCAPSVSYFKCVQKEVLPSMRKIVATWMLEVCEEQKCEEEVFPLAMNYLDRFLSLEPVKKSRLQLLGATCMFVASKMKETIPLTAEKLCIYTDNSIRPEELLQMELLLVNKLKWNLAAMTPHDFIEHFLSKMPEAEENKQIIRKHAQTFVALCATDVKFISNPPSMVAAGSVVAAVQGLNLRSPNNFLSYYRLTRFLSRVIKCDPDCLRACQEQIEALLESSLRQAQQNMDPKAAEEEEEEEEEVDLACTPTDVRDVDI", "sequence (Q00534 whole entry)": "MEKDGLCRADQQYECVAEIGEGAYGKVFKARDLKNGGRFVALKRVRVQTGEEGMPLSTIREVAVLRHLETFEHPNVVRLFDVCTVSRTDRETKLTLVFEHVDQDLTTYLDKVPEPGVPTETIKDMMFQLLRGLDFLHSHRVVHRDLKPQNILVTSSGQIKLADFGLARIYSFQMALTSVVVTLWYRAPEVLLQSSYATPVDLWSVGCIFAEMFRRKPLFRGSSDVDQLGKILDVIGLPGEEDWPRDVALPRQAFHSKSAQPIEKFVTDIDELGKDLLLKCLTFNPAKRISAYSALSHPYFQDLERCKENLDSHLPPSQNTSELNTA", "assay": "Inhibition of CDK6/cyclin-D1 (unknown origin) in presence of ATP by time resolved-FRET assay", "type": "protein-complex assay"}, "[16]": {"assay": "Acute toxicity in ICR mouse assessed as change in lung weight at 1000 to 5000 mg/kg, po administered as single dose and measured every 2 days for 14 days", "type": "organism-based", "details": "in vivo, 336 h, dose 1000-5000 mg/kg, time 14 day"}, "[17]": {"assay": "Thermodynamic solubility of the compound incubated for 24 hrs under shaking condition by LC-MS/MS analysis", "type": "physicochemical", "details": "read-out: Therm_solubility"}, "[18]": {"system": "T47D", "assay": "Downregulation cyclin D1 level in human T47D cells incubated for 24 hrs by Western blot analysis", "type": "functional, cell-based", "details": "dose 1-4 µM, DDE = dose-dependent effect"}, "[19]": {"assay": "Acute toxicity in ICR mouse assessed as heart kidney at 5000 mg/kg, po administered as single dose and measured every 2 days for 14 days by H and E staining based analysis", "type": "organism-based", "details": "in vivo, 336 h, time 14 day"}, "[20]": {"system": "MCF7", "assay": "Downregulation cyclin D1 level in human MCF7 cells incubated for 24 hrs by Western blot analysis", "type": "functional, cell-based", "details": "dose 1.5-5 µM, DDE = dose-dependent effect"}, "[21]": {"assay": "Inhibition of CDK1/cyclin B (unknown origin) in presence of ATP by time resolved-FRET assay", "set-up": "species or system Homo sapiens"}, "[22]": {"system": "T47D", "assay": "Induction of cell cycle arrest in human T47D cells assessed as accumulation of cells at G2 phase at 4 uM incubated for 24 hrs by propidium iodide staining based flow cytometry analysis (reference value: 16.57%)", "type": "functional"}, "[23]": {"biological_target": "CYP3A4 (Homo sapiens, UniProt P08684)", "sequence (P08684 whole entry)": "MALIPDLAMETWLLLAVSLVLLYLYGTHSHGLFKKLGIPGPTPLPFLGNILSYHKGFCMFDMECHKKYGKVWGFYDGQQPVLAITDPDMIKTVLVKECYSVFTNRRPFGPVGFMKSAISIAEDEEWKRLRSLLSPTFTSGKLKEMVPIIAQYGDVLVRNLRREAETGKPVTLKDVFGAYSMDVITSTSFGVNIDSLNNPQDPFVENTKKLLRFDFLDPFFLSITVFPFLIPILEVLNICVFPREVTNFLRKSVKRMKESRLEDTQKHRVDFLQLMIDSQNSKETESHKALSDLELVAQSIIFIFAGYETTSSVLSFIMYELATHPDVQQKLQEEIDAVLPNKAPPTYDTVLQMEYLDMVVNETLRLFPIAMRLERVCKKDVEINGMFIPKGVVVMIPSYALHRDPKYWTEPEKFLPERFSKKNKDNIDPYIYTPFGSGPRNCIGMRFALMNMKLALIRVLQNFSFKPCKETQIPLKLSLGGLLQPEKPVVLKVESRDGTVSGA", "assay": "Inhibition of CYP3A4 in human liver microsomes using testosterone as substrate at 10 uM preincubated for 5 mins followed by NADPH addition by LC-MS/MS analysis relative to control", "type": "ADME, Microsome", "details": "probe testosterone"}, "[24]": {"system": "MCF7", "assay": "Induction of cell cycle arrest in human MCF7 cells assessed as accumulation of cells at G1 phase at 6 uM incubated for 24 hrs by propidium iodide staining based flow cytometry analysis (reference value: 57.38%)", "type": "functional"}, "[25]": {"system": "T47D", "assay": "Induction of cell cycle arrest in human T47D cells assessed as accumulation of cells at G1 phase at 1 uM incubated for 24 hrs by propidium iodide staining based flow cytometry analysis (reference value: 69.55 %)", "type": "functional"}, "[26]": {"system": "T47D", "assay": "Induction of cell cycle arrest in human T47D cells assessed as accumulation of cells at G2 phase at 2 uM incubated for 24 hrs by propidium iodide staining based flow cytometry analysis (reference value: 16.57%)", "type": "functional"}, "[27]": {"system": "MCF7", "assay": "Induction of cell cycle arrest in human MCF7 cells assessed as accumulation of cells at G2 phase at 1.5 uM incubated for 24 hrs by propidium iodide staining based flow cytometry analysis (reference value: 29.66%)", "type": "functional"}, "[28]": {"system": "T47D", "assay": "Induction of cell cycle arrest in human T47D cells assessed as accumulation of cells at G2 phase at 1 uM incubated for 24 hrs by propidium iodide staining based flow cytometry analysis (reference value: 16.57%)", "type": "functional"}, "[29]": {"assay": "Half life in Sprague-Dawley rat 10 mg/kg, po by LC/MS/MS analysis", "type": "ADME, organism-based", "details": "in vivo"}, "[30]": {"assay": "Oral bioavailability in Sprague-Dawley rat 10 mg/kg by LC/MS/MS analysis", "type": "ADME, organism-based", "details": "in vivo"}, "[31]": {"assay": "[…] stability in human liver microsomes assessed as intrinsic clearance preincubated for 10 mins followed by NADPH addition by LC-MS/MS analysis", "type": "ADME, Microsome", "details": "read-out: CLH"}, "[32]": {"assay": "Acute toxicity in ICR mouse assessed as change in heart weight at 1000 to 5000 mg/kg, po administered as single dose and measured every 2 days for 14 days", "type": "organism-based", "details": "in vivo, 336 h, dose 1000-5000 mg/kg, time 14 day"}, "[33]": {"biological_target": "CDK2/Cyclin A2 (Homo sapiens, UniProt P24941)", "assay": "Inhibition of CDK2/Cyclin A (unknown origin) in presence of ATP by time resolved-FRET assay", "type": "protein-complex assay"}, "[34]": {"assay": "AUC (0 to infinity) in Sprague-Dawley rat 10 mg/kg, po by LC/MS/MS analysis", "type": "ADME, organism-based", "set-up": "time infinity, dose 10 mg/kg, route po", "details": "in vivo"}, "[35]": {"assay": "Tmax in Sprague-Dawley rat 10 mg/kg, po by LC/MS/MS analysis", "type": "ADME, organism-based", "details": "in vivo"}, "[36]": {"assay": "[…] stability in human liver microsomes assessed as half life preincubated for 10 mins followed by NADPH addition by LC-MS/MS analysis", "type": "ADME, Microsome"}, "[37]": {"biological_target": "CDK7/Cyclin H/MNAT1 (Homo sapiens, UniProt P50613)", "sequence (P51946 whole entry)": "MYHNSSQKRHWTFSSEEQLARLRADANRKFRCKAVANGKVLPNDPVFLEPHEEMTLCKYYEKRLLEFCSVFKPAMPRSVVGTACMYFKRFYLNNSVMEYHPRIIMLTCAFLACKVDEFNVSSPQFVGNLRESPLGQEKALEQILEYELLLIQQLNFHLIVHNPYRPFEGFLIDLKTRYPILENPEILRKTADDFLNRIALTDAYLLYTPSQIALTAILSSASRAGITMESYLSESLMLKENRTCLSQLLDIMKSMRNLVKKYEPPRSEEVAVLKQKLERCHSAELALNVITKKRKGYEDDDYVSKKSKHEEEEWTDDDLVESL", "sequence (P50613 whole entry)": "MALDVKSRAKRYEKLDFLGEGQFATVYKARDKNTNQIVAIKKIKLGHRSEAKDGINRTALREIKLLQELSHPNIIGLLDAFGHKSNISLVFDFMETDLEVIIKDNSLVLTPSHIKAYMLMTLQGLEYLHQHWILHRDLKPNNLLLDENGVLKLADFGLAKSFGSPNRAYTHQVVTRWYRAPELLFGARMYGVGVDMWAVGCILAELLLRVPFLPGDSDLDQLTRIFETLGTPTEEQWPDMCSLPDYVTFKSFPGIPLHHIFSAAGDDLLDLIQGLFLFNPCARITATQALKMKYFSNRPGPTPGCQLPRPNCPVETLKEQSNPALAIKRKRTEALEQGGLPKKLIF", "sequence (P51948 whole entry, further chain)": "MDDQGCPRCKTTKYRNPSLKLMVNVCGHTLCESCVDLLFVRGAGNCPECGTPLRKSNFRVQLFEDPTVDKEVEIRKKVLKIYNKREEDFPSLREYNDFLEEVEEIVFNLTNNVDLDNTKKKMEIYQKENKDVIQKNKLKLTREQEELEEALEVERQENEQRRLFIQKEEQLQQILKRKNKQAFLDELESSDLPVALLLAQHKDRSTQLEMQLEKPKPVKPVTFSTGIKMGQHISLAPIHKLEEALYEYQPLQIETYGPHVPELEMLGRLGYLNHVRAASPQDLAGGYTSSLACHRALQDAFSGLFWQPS", "assay": "Inhibition of CDK7/cyclin H/MAT1 (unknown origin) in presence of ATP by time resolved-FRET assay", "type": "protein-complex assay"}},
  "note": "Active and inactive are the calls of the source. The rule behind the calls is not given here.",
  "data": [
    {"smiles": "CCN1CCc2cc(-c3nc(Nc4ccc(N5CCNCC5)cn4)ncc3F)ccc2C1=O", "values": [
      {"measurement": "Activity", "setting": "[1]", "result": 87.12, "unit": "%"},
      {"measurement": "Activity", "setting": "[2]", "result": "Non-Toxic"},
      {"measurement": "inhibition", "setting": "[3]", "result": "Active"},
      {"measurement": "GI50", "setting": "[4]", "result": 17600, "unit": "nM"},
      {"measurement": "half-life", "setting": "[5]", "result": 2.62, "unit": "h"},
      {"measurement": "Activity", "setting": "[6]", "result": "Dde"},
      {"measurement": "Activity", "setting": "[7]", "result": "Non-Toxic"},
      {"measurement": "inhibition", "setting": "[8]", "result": "Active"},
      {"measurement": "Activity", "setting": "[9]", "result": "Non-Toxic"},
      {"measurement": "IC50", "setting": "[10]", "result": 10, "unit": "nM"},
      {"measurement": "Activity", "setting": "[11]", "result": "Non-Toxic"},
      {"measurement": "Activity", "setting": "[12]", "result": 79.52, "unit": "%"},
      {"measurement": "Activity", "setting": "[13]", "result": "Non-Toxic"},
      {"measurement": "inhibition", "setting": "[14]", "result": "Active"},
      {"measurement": "IC50", "setting": "[15]", "result": 16, "unit": "nM"},
      {"measurement": "Activity", "setting": "[16]", "result": "Non-Toxic"},
      {"measurement": "solubility thermodynamic at 24 h", "setting": "[17]", "result": 1020, "unit": "µg/mL"},
      {"measurement": "Activity", "setting": "[18]", "result": "Dde"},
      {"measurement": "Activity", "setting": "[19]", "result": "Non-Toxic"},
      {"measurement": "Activity", "setting": "[20]", "result": "Dde"},
      {"measurement": "IC50", "setting": "[21]", "result": "> 10000", "unit": "nM"},
      {"measurement": "Activity", "setting": "[22]", "result": 5.87, "unit": "%"},
      {"measurement": "inhibition at 10 µM", "setting": "[23]", "result": 12.4, "unit": "%"},
      {"measurement": "Activity", "setting": "[24]", "result": 85.27, "unit": "%"},
      {"measurement": "Activity", "setting": "[25]", "result": 83.14, "unit": "%"},
      {"measurement": "Activity", "setting": "[26]", "result": 6.06, "unit": "%"},
      {"measurement": "Activity", "setting": "[27]", "result": 13.57, "unit": "%"},
      {"measurement": "Activity", "setting": "[28]", "result": 7.59, "unit": "%"},
      {"measurement": "half-life", "setting": "[29]", "result": 3.59, "unit": "h"},
      {"measurement": "bioavailability", "setting": "[30]", "result": 43, "unit": "%"},
      {"measurement": "CLint scaled", "setting": "[31]", "result": 11.5, "unit": "mL/min/kg"},
      {"measurement": "Activity", "setting": "[32]", "result": "Non-Toxic"},
      {"measurement": "IC50", "setting": "[33]", "result": 1050, "unit": "nM"},
      {"measurement": "AUC(0-inf)", "setting": "[34]", "result": 1610, "unit": "ng·h/mL"},
      {"measurement": "Tmax", "setting": "[35]", "result": 6, "unit": "h"},
      {"measurement": "half-life", "setting": "[36]", "result": 1.8, "unit": "h"},
      {"measurement": "IC50", "setting": "[37]", "result": 2600, "unit": "nM"}
    ]}
  ]
}
